Where “and” joins values, the source holds several entries; their conditions need not be identical. Equal entries are not always repeated.
Experiment: Anticancer human tumor 997537-175-T-J1-PDC patient-derived colon adenocarcinoma cell line growth inhibition [POLQ]
Settings: 997537-175-T-J1-PDC complex spheroid viability, combination with POLQ inhibitors; for viability, T/C: stronger effect = lower value
Protocol: Multicellular complex tumor spheroid response to Polymerase (POL) inhibitors (novobiocin, ART-558, RP6685) in combination with a variety of drugs and investigational agents in selected tumor cell lines
The POL inhibitors (novobiocin, ART-558, and RP6685) were evaluated both individually and in combination with standard of care and investigational anticancer small molecules within a complex spheroid model of solid tumors. . Complex spheroids include a stromal component modeled by human endothelial cells (HUVEC) and fibroblasts modeled by human mesenchymal stem cells (MSCs). The concentration ranges selected for each drug and investigational agent were based upon clinically achievable concentrations if the clinical Cmax of the agent was known.
Compounds. The drugs and investigational agents: novobiocin (NSC847541), ART-558 (NSC835418), RP-6685 (NSC848927), peposertib (NSC802822), ceralasertib (NSC780249), elimusertib (NSC800525), camonsertib (NSC841442), AZD-1390 (NSC803789), olaparib (NSC753686), talazoparib (NSC767125), rucaparib (NSC756644), sotorasib (NSC818433), MRTX-1133 (NSC836407), SN-38 (NSC673596), topotecan (NSC609699), epotoside (NSC141540), doxorubicin (NSC123127), gemcitabine (NSC613327), 5-fluorouracil (NSC19893), paclitaxel (NSC125973), vemurafenib (NSC761431), MSA-2 (NSC828583), SN-011 (NSC837082), adavosertib (NSC754352), prexasertib (NSC758257), carboplatin (NSC241240) and oxaliplatin (NSC266046), were obtained from the National Cancer Institute (NCI) Developmental Therapeutics Program Chemical Repository (21). The FDA-approved anticancer drug set is available from the Developmental Therapeutics Program at https://dtp.cancer.gov/organization/dscb/obtaining/. […] The stock solutions were prepared in dimethyl sulfoxide (DMSO, Sigma-Aldrich, St. Louis, MO, cat. D2650), except for the platinum compounds which were prepared in saline (Quality Biological, Gaithersburg, MD, cat. 114-055-101), at 800-fold the tested concentration and stored at -70 degrees C prior to their use. All drugs and investigational agents were tested over a range starting from a high concentration at or near the clinical Cmax and decreasing in half-log increments. If the clinical Cmax for an agent had not been determined, the highest concentration tested was 10 microM, except for SN-38, which was tested at a high concentration of 1 microM.
Cell Culture. All cells were maintained in an incubator at 37 degrees C and 5% CO2 with 95% humidity. The PDC lines were cultured according to standard operating procedures established by the NCI PDMR (https://pdmr.cancer.gov). Table 3 of the manuscript, lists the cell lines along with the number of the three cell types plated to form the mct-spheroids and media for tumor cell growth. After thawing, all PDC lines, except 997537-175-T-J1-PDC and 415267-285-R-J2-PDC, were cultured in Matrigel-coated flasks prepared with a working solution of 1X Ham's F-12 nutrient mix, without supplementation (Thermo Fisher Scientific, cat. 11765054), 100 U/mL penicillin-streptomycin (Thermo Fisher Scientific, cat. 15140122), and 2.5% Matrigel (Corning Inc., Corning, NY, cat. 354248) for the first three passages. The two PDC lines 997537-175-T-J1-PDC and 415267-285-R-J2-PDC were cultured on uncoated flasks. The 857933-349-R-J2-PDC line was cultured in 6C/Colon 1B media containing advanced DMEM/F-12 (Thermo Fisher Scientific, cat. 12634028), 10 mM HEPES (Thermo Fisher Scientific, cat. 15630080), 1X GlutaMAX supplement (Thermo Fisher Scientific, cat. 35050061), 0.1 mg/mL primocin (InvivoGen, San Diego, CA, cat. ant-pm-2), 10% defined fetal bovine serum, heat inactivated (HyClone Laboratories Inc., Logan, UT, cat. SH30070.03HI), 50% L-WRN conditioned media (ATCC, cat. CRL-3276), 1.25 mM N-Acetyl-L-cysteine (Sigma-Aldrich, cat. A9165), 10 mM nicotinamide (Sigma-Aldrich, cat. N0636), 1X B-27 supplement (Thermo Fisher Scientific, cat. 17504044), 1X N-2 supplement (Thermo Fisher Scientific, cat. […]
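Also: luminescence signal used as a surrogate for viable cells; spheroids exposed to drugs for seven days before readout.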

In the case of `CC1COCCN1c1cc(C2(O)CC3CCC(C2)O3)c2cnn(-c3ccn[nH]3)c2n1` (stereo unspecified), the viability, T/C (compound 0.0316 µM) is reported as 80.8% and 88.2% and 99.8%, the viability, T/C (compound 0.1 µM) is reported as 88.8% and 81.9% and 65.3% and the viability, T/C (compound 0.316 µM) is reported as 57.4% and 42.1% and 58.8%. The viability, T/C (compound 1 µM) was 49% and 58.5% and 56.2%, the viability, T/C (compound 3.16 µM) was 61.2% and 67.5% and 61.5% and the viability, T/C (compound 10 µM) was 62.1% and 47.6% and 48.3%. The IC50 (curve of compound) was > 10 µM.
With `COc1cc2cc(C(=O)CCC(=O)O)sc2cc1OC` the viability, T/C (compound 0.0316 µM) was 102% and 105% and 95.7%, the viability, T/C (compound 0.1 µM) was 99% and 93.1% and 94.9% and the viability, T/C (compound 0.316 µM) was 85.6% and 113% and 104%. The viability, T/C (compound 1 µM) was 107% and 89.6% and 100%, the viability, T/C (compound 3.16 µM) was 106% and 100% and 91.6% and the viability, T/C (compound 10 µM) was 98.2% and 83.3% and 99.8%. For the same molecule, the IC50 (curve of compound) was > 10 µM.
In the case of `COc1cc(C2c3cc4c(cc3C(OC3OC5COC(C)OC5C(O)C3O)C3COC(=O)C23)OCO4)cc(OC)c1O` (stereo unspecified), the viability, T/C (compound 0.0316 µM) is reported as 81.2% and 92.1% and 89.8%, the viability, T/C (compound 0.1 µM) is reported as 90% and 102% and 100% and the viability, T/C (compound 0.316 µM) is reported as 86.5% and 100% and 114%. The viability, T/C (compound 1 µM) was 102% and 92.9% and 99.7%, the viability, T/C (compound 3.16 µM) was 92.7% and 81% and 88.9% and the viability, T/C (compound 10 µM) was 76.3% and 68.8% and 51.7%. The IC50 (curve of compound) was > 10 µM.
With `CC1COCCN1c1cc(C2(O)CC3CCC(C2)O3)c2cnn(-c3ccn[nH]3)c2n1` (stereo unspecified) + Nc1ccc(C#CCN(C(=O)Cc2ncc(C(F)(F)F)cc2C(F)(F)F)c2ccc(F)cc2)nn1 the IC50 (curve of first compound, second compound 0.0316 µM) was 1.7 µM, the IC50 (curve of first compound, second compound 0.1 µM) was > 10 µM and the IC50 (curve of first compound, second compound 0.316 µM) was > 10 µM. For the same molecule, the IC50 (curve of first compound, second compound 1 µM) was 6.2 µM, the IC50 (curve of first compound, second compound 3.16 µM) was 3.16 µM and the IC50 (curve of first compound, second compound 10 µM) was > 10 µM. The viability, T/C (second compound 0.0316 µM, first compound 0.0316 µM) was 94.8%, the viability, T/C (second compound 0.0316 µM, first compound 0.1 µM) was 83.7% and the viability, T/C (second compound 0.0316 µM, first compound 0.316 µM) was 58.4%. It also gave a viability, T/C (second compound 0.0316 µM, first compound 1 µM) of 56.8%, a viability, T/C (second compound 0.0316 µM, first compound 3.16 µM) of 40.1% and a viability, T/C (second compound 0.0316 µM, first compound 10 µM) of 53.3%. It also gave a viability, T/C (second compound 0.1 µM, first compound 0.0316 µM) of 98.8%, a viability, T/C (second compound 0.1 µM, first compound 0.1 µM) of 73.5% and a viability, T/C (second compound 0.1 µM, first compound 0.316 µM) of 42.5%. It also gave a viability, T/C (second compound 0.1 µM, first compound 1 µM) of 72.8%, a viability, T/C (second compound 0.1 µM, first compound 3.16 µM) of 48% and a viability, T/C (second compound 0.1 µM, first compound 10 µM) of 64.5%. It also gave a viability, T/C (second compound 0.316 µM, first compound 0.0316 µM) of 93.2%, a viability, T/C (second compound 0.316 µM, first compound 0.1 µM) of 80.8% and a viability, T/C (second compound 0.316 µM, first compound 0.316 µM) of 49.9%. The viability, T/C (second compound 0.316 µM, first compound 1 µM) was 46.3%, the viability, T/C (second compound 0.316 µM, first compound 3.16 µM) was 51.4% and the viability, T/C (second compound 0.316 µM, first compound 10 µM) was 75.1%. It also gave a viability, T/C (second compound 1 µM, first compound 0.0316 µM) of 97.3%, a viability, T/C (second compound 1 µM, first compound 0.1 µM) of 69.4% and a viability, T/C (second compound 1 µM, first compound 0.316 µM) of 63.1%. The viability, T/C (second compound 1 µM, first compound 1 µM) was 47.6%, the viability, T/C (second compound 1 µM, first compound 3.16 µM) was 58.6% and the viability, T/C (second compound 1 µM, first compound 10 µM) was 44.7%. It also gave a viability, T/C (second compound 3.16 µM, first compound 0.0316 µM) of 82.4%, a viability, T/C (second compound 3.16 µM, first compound 0.1 µM) of 79.1% and a viability, T/C (second compound 3.16 µM, first compound 0.316 µM) of 42%. For the same molecule, the viability, T/C (second compound 3.16 µM, first compound 1 µM) was 56.4%, the viability, T/C (second compound 3.16 µM, first compound 3.16 µM) was 42.8% and the viability, T/C (second compound 3.16 µM, first compound 10 µM) was 74.7%. The viability, T/C (second compound 10 µM, first compound 0.0316 µM) was 94%, the viability, T/C (second compound 10 µM, first compound 0.1 µM) was 79.9% and the viability, T/C (second compound 10 µM, first compound 0.316 µM) was 55.3%. It also gave a viability, T/C (second compound 10 µM, first compound 1 µM) of 52.2%, a viability, T/C (second compound 10 µM, first compound 3.16 µM) of 62% and a viability, T/C (second compound 10 µM, first compound 10 µM) of 65.2%.
With `O=C(c1cc(Cc2n[nH]c(=O)c3ccccc23)ccc1F)N1CCN(C(=O)C2CC2)CC1` the viability, T/C (compound 0.0316 µM) was 98.8% and 31.4% and 107%, the viability, T/C (compound 0.1 µM) was 107% and 36% and 112% and the viability, T/C (compound 0.316 µM) was 99.5% and 36% and 104%. For the same molecule, the viability, T/C (compound 1 µM) was 87.5% and 38% and 104%, the viability, T/C (compound 3.16 µM) was 121% and 40.2% and 95.3% and the viability, T/C (compound 10 µM) was 89.1% and 32.3% and 94.1%.
In the case of `CC1COCCN1c1cc(C2(S(C)(=N)=O)CC2)nc(-c2ccnc3[nH]ccc23)n1` (stereo unspecified), the viability, T/C (compound 0.0316 µM) is reported as 92.8% and 97.8% and 110%, the viability, T/C (compound 0.1 µM) is reported as 99.5% and 101% and 102% and the viability, T/C (compound 0.316 µM) is reported as 101% and 84.7% and 82.3%. The viability, T/C (compound 1 µM) was 91.7% and 86.5% and 92.7%, the viability, T/C (compound 3.16 µM) was 66% and 59.8% and 74.8% and the viability, T/C (compound 10 µM) was 49.9% and 58.9% and 53.6%. The IC50 (curve of compound) was 9.98 µM and > 10 µM.

— PubChem BioAssay AID1963825 (Molecular Pharmacology Branch, DTP, NCI, 2024)
